Legend:
[1] = system: Dx5; settings: previously characterized; cited from earlier work
[2] = system: MDCK cells; test: metabolic rate of MDCK cells grown on the silicon sensor surface; type: cell-based, canine; settings: 3 μM epinephrine, primary introduction

COc1cccc2c1C(=O)c1c(O)c3c(c(O)c1C2=O)C[C@@](O)(C(=O)CO)C[C@@H]3O[C@H]1C[C@H](N)[C@H](O)[C@H](C)O1 [doxorubicin]
resistance of Dx5 [1]: resistant

CNC[C@H](O)c1ccc(O)c(O)c1 [epinephrine]
change of metabolic rate vs. control rate [2]: did not significantly alter the metabolic rate

CC[C@]1(O)C[C@H]2CN(CCc3c([nH]c4ccccc34)[C@@](C(=O)OC)(c3cc4c(cc3OC)N(C=O)[C@H]3[C@@](O)(C(=O)OC)[C@H](OC(C)=O)[C@]5(CC)C=CCN6CC[C@]43[C@@H]65)C2)C1 [vincristine]
resistance of Dx5 [1]: resistant

— patent publication US5496697A, “Methods and apparatus for detecting the effect of cell affecting agents on living cells” (priority 1993, dated 1996)
